Experimental data as given in patent US20220304945A1, “METHODS OF TREATING METABOLIC SYNDROME RELATED CONDITIONS USING RETINOIC ACID RECEPTOR AGONISTS” (Cornell University, priority 2014, published 2022).

Legend:
[1] = tested on: HF-fed C57/BL6 mice; test: HF-fed mice treated 3 months: body weight, GTT, fasting glucose (Example 22); type: in vivo, mouse
Protocol: METHODS. Preparation of RARβ agonists solution. AC261066 and AC55649 were dissolved in dimethyl sulfoxide (DMSO) at the concentration of 3.0 mg/ml and diluted in the drinking water for mice to the final concentration of 3.0-mg/100 ml. Mice, diet, and drug treatments. Wt male C57/BL6 male mice were maintained on either a standard laboratory chow-fed diet (Con) with 13% kcal fat, (diet #5053, Lab Diet, Inc, St. Louis, Mo., [n=4]) or a high fat, western style diet (HFD) with 45% kcals from fat, (diet #58126, Lab Diet, Inc., St. Louis, Mo.) for 3 months. Two weeks after the start of the HFD treatment, the HFD group was further split into 3 groups for 3 months: i) HFD and drinking water containing 1% DMSO (n=5); ii) high fat diet (HFD) and drinking water containing 3.0 mg/100 ml AC261066, a specific RARβ agonist (n=5) or iii) HFD and drinking water containing 3.0 mg/100 ml AC55649, a specific RARβ agonist (n=4). After 3 months the mice were tested for glucose intolerance with an intra-peritoneal glucose tolerance test (GTT). Mice were then sacrificed by cervical dislocation. Blood and various tissue samples were harvested.
Glucose Tolerance Test (GTT). Glucose tolerance was performed using an intraperitoneal glucose tolerance test (GTT). Mice were fasted overnight (˜16 hrs) followed by intra-peritoneal injections (n=3-5 per group) of 50% glucose in PBS at 2.0 g of glucose/kg of body weight. Tail vein blood was collected at 15, 30, 45, 60, and 120 minutes post-injection for glucose measurements using a FreeStyle Lite Blood Glucose Monitoring System (Abbott Diabetes Care, Inc. Alameda, Calif.). Random and fasting blood glucose measurements were taken from tail veins of 4 mice per group at 2-3 random time points daily or just prior to GTT. Means are expressed as ±standard error of the mean (S.E.M) and P-values were calculated using one-way analysis of variance followed by Bonferroni post-hoc analysis. Grubbs' maximum normal residual test was used for detection of one or more outliers.

[2] = tested on: HF-fed C57/BL6 mice; test: Metabolic studies (body weight, GTT) in HF-fed wild type mice, 4 months; type: in vivo, mouse; conditions: obese HF-fed mice, 3.0 mg/100 ml drinking water
Protocol: Mice, diet, and drug treatment. Dietary Obesity Studies: Wild type (wt) male C57/BL6 male mice were maintained on either a standard laboratory chow-fed diet (Con) with 13% kcal fat, (diet #5053, Lab Diet, Inc, St. Louis, Mo.) or a high fat, western style diet (HFD) with 45% kcals from fat, (diet #58126, Lab Diet, Inc., St. Louis, Mo.) for 4 months. […]
Metabolic Measurements-Glucose tolerance was performed using an intraperitoneal glucose tolerance test (GTT) as previously described (Trasino et al., Vitamin A Deficiency Causes Hyperglycemia and Loss of Pancreatic β-Cell Mass, J Biol Chem. 2014 Dec. 1. pii: jbc.M114.616763). […] Tail vein blood glucose was measured at 20, 40, 60 and 120 minutes after injection using a FreeStyle Lite Blood Glucose Monitoring System (Abbott Diabetes Care, Inc. Alameda, Calif.). To determine insulin secretion responses to glucose, serum fractions were isolated between 0-60 minutes post glucose injections and insulin concentrations were measured using an Ultrasensitive Insulin ELISA Kit (Alpco, Inc. Salem, N.H.). Random blood glucose measurements were taken from tail veins of 4 mice per group at 2-3 random time points daily Means are expressed as±standard error of the mean (S.E.M) and P-values were calculated using one-way analysis of variance followed by Bonferroni post-hoc analysis.

[3] = tested on: Ob/Ob and Db/Db mice; test: Metabolic studies (body weight, GTT, insulin secretion, ITT) in Ob/Ob and Db/Db mice, 8 weeks; type: in vivo, mouse; conditions: genetically obese and diabetic Ob/Ob and Db/Db mice
[4] = target: T1, RARβ2 (Homo sapiens, UniProt P10826); conditions: as described in Lund et al. 2005; cited from earlier work
T1 sequence (P10826 1-448 isoform P10826-2): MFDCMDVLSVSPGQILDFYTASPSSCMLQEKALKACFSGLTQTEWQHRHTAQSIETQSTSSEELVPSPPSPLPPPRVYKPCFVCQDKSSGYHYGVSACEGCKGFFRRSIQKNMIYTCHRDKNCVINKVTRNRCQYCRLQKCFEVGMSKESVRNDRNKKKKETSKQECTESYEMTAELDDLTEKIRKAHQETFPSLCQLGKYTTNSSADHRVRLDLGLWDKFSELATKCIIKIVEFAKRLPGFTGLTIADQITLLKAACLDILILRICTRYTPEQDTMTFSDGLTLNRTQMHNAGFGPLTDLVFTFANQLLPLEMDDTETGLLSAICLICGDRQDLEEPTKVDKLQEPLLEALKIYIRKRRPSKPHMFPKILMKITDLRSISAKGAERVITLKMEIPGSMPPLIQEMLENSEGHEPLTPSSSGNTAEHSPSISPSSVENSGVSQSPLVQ

Compound: CCCCCCCCc1ccc(-c2ccc(C(=O)O)cc2)cc1 [AC55649, 4′-Octyl-[1,1′-biphenyl]-4-carboxylic acid]
- glucose tolerance and area under the curve glucose [1]: improved
- overnight fasting glucose levels [1]: significant reductions
- decrease in body weights compared to HF-fed mice ([1]; 3.0 mg/100 ml drinking water): ~10%
- body weights [2]: significant reductions
- body weights [3]: significant reductions
- isoform selectivity for the human RARβ2 receptors [4]: highly isoform-selective agonists
